The values below come from PubChem BioAssay AID504352 (Southern Research Specialized Biocontainment Screening …, 2011).

Molecules are shown by their SMILES. Activity calls are given as the source filed them.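 The calls were made as follows: active = compounds cutting HIV-1 replication by at least half at any tested dose; inactive = the rest.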 Where only a bound is given, the exact number is not on record here.

In the test the test system is MAGI-CCR5 cells, HIV-1 BaL, beta-gal luminescence, 48 h. Nature of the test: R5 HIV-1 replication inhibitors in MAGI cells, MAGI-CCR5 cells, beta-gal luminescence, 2% serum, set 3 (AID 504352).

Take `Nc1sc2ccccc2[n+]1Cc1ccc(C(=O)O)cc1`: the IC50 was > 100 µM (inactive).
As for `Cc1ccc(-n2cccc2/C=C2/C(=N)N3C(=NC2=O)SN=C3S(C)(=O)=O)cc1`, the figure is 35.1 µM.
Consider `O=C(O)c1ccc(C[n+]2c(-c3ccc([N+](=O)[O-])cc3)csc2Nc2ccccc2)cc1`, for which the half-maximal inhibitory concentration (IC50) was 15 µM.
As for `CS(=O)(=O)C1=NSC2=NC(=O)/C(=C\c3cccn3-c3cccc(C(F)(F)F)c3)C(=N)N21`, the figure is 47.3 µM.
With `O=C(O)CCCN1C(=O)/C(=C\c2ccc(-c3cccc(Cl)c3)o2)SC1=S`, the IC50 was 15.2 µM.
With `COc1cccc(-n2cccc2/C=C2/C(=N)N3C(=NC2=O)SN=C3S(C)(=O)=O)c1` the figure was 37 µM; with `CCOC(=O)C1=C(C)N=c2s/c(=C\c3ccc(OCC(=O)O)cc3)c(=O)n2C1c1ccc(Cl)cc1` (stereo not drawn), 38.1 µM; with `Cc1ccc(-n2cccc2/C=C2/C(=N)N3C(=NC2=O)SN=C3S(C)(=O)=O)cc1C`, 36.1 µM.
With `O=C(O)c1ccc(C[n+]2c(-c3ccccc3)csc2Nc2ccccc2)cc1` the figure was 49.5 µM; with `CCOC(=O)C1=C(C)N=c2s/c(=C\c3ccc(OCC(=O)O)cc3)c(=O)n2C1c1ccc(OC)c(OCC)c1` (stereo not drawn), 33.6 µM.
With `Cc1c2c(=O)n(-c3nc4ccccc4s3)nc-2cc(O)n1CCC(C)C`, the IC50 is 2.16 µM.
On to `Cc1c2c(=O)n(-c3nc4ccccc4s3)nc-2cc(O)n1Cc1ccncc1`, for which the 50% inhibitory concentration (IC50) was 4.4 µM.
Regarding `CCOC(=O)C1=C(c2ccccc2)N=c2s/c(=C\c3ccc(OCC(=O)O)cc3)c(=O)n2C1c1cccc(OC)c1` (stereo not drawn), the IC50 was 6.6 µM.
For the compound `CCOC(=O)C1=C(C)N=c2sc(=Cc3ccc(OCC(=O)O)cc3)c(=O)n2C1c1ccc(OC)cc1OC` (stereo not drawn), the 50% inhibitory concentration (IC50) is 44.7 µM.
As for `Cc1c2c(=O)n(-c3nc4ccccc4s3)nc-2cc(O)n1Cc1ccc(F)cc1`, the figure is 3.89 µM.
With `CS(=O)(=O)C1=NSC2=NC(=O)/C(=C\c3cccn3-c3cc(Cl)cc(Cl)c3)C(=N)N21`, the half-inhibitory concentration (IC50) was 33.7 µM.
With `COc1cccc(C2C(C(=O)Nc3ccccc3)=C(C)N=c3sc(=Cc4ccc(OCC(=O)O)cc4)c(=O)n32)c1` (stereo not drawn) the figure was 55.4 µM; with `Cc1c2c(=O)n(-c3nc4ccccc4s3)nc-2cc(O)n1Cc1ccccc1Cl`, 3.68 µM.
With `Cc1c2c(=O)n(-c3nc4ccccc4s3)nc-2cc(O)n1C1CC1` the figure was 0.56 µM.
`O=C(O)CCCN1C(=O)/C(=C/c2ccc(-c3cccc(C(F)(F)F)c3)o2)SC1=S`: the IC50 was 32.4 µM.
With `O=C(O)c1ccc(C2Nc3ccc(S(=O)(=O)Nc4cc(Cl)ccc4Cl)cc3C3C=CCC32)cc1` (stereo not drawn) the figure was 1.68 µM; with `CCOC(=O)C1=C(C)N=c2sc(=Cc3ccc(OCC(=O)O)cc3)c(=O)n2C1c1ccccc1OC` (stereo not drawn), 45.1 µM; with `COc1ccc(Cn2c(O)cc3nn(-c4nc5ccccc5s4)c(=O)c-3c2C)cc1`, 4.1 µM.
Turning to `CCOC(=O)C1=C(C)N=c2sc(=Cc3ccc(OCC(=O)O)cc3)c(=O)n2C1c1ccc(F)cc1` (stereo not drawn), the IC50 is 36.1 µM.
As for `CS(=O)(=O)C1=NSC2=NC(=O)/C(=C\c3cccn3-c3ccc(F)cc3)C(=N)N21`, the figure is 35.1 µM; as for `CCOc1ccc(-n2cccc2/C=C2/C(=N)N3C(=NC2=O)SN=C3S(C)(=O)=O)cc1`, 24.3 µM.
As for `CCc1ccc(-c2ccc(/C=C3\SC(=S)N(CCCC(=O)O)C3=O)o2)cc1`, the figure is 3.43 µM.
Regarding `O=C(O)CCCN1C(=O)/C(=C\c2ccc(-c3ccc(F)cc3)o2)SC1=S`, the half-maximal inhibitory concentration (IC50) is 37 µM.
With `COc1ccc(CCn2c(O)cc3nn(-c4nc5ccccc5s4)c(=O)c-3c2C)cc1` the figure was 13.4 µM; with `O=C(O)CCCN1C(=O)/C(=C/c2cc3ccccc3o2)SC1=S`, 7.55 µM; with `CCOC(=O)C1=C(C)N=c2sc(=Cc3ccc(OCC(=O)O)cc3)c(=O)n2C1c1ccccc1` (stereo not drawn), 43.6 µM.
As for `CCc1ccc(-n2cccc2/C=C2/C(=N)N3C(=NC2=O)SN=C3S(C)(=O)=O)cc1`, the figure is 36.2 µM.
As for `CCOC(=O)C1=C(C)N=c2sc(=Cc3ccc(OCC(=O)O)cc3)c(=O)n2C1c1cc(OC)c(OC)c(OC)c1` (stereo not drawn), the figure is > 100 µM (inactive); as for `O=C(O)c1ccc([C@@H]2Nc3ccc(S(=O)(=O)Nc4cccc5ccccc45)cc3[C@@H]3C=CC[C@@H]32)cc1`, 3.71 µM; as for `Cc1c2c(=O)n(-c3nc4ccccc4s3)nc-2cc(O)n1Cc1cccnc1`, 1.95 µM.
As for `CC1=C(C(=O)OC(C)C)C(c2ccc(Cl)cc2)n2c(s/c(=C\c3ccc(OCC(=O)O)cc3)c2=O)=N1` (stereo not drawn), the IC50 is > 100 µM (inactive).
Regarding `COc1ccccc1NS(=O)(=O)c1ccc2c(c1)C1C=CCC1C(c1ccc(C(=O)O)cc1)N2` (stereo not drawn), the half-maximal inhibitory concentration (IC50) is 2.87 µM.
In the case of `O=C(O)CCCN1C(=O)/C(=C/c2ccc(-c3ccc(Cl)c(Cl)c3)o2)SC1=S`, the 50% inhibitory concentration (IC50) is 27.4 µM.
As for `O=C(O)CCC(C(=O)O)N1C(=O)/C(=C\c2ccco2)SC1=S` (stereo not drawn), the figure is > 100 µM (inactive); as for `COc1ccc(-n2cccc2/C=C2/C(=N)N3C(=NC2=O)SN=C3S(C)(=O)=O)cc1Cl`, 32.1 µM.
As for `O=C(O)CCCN1C(=O)/C(=C\c2ccc(-c3ccc(Br)cc3)o2)SC1=S`, the figure is > 100 µM (inactive); as for `Cc1c2c(=O)n(-c3nc4ccccc4s3)nc-2cc(O)n1Cc1cccs1`, 2.27 µM; as for `CS(=O)(=O)C1=NSC2=NC(=O)/C(=C\c3cccn3-c3cccc(Cl)c3)C(=N)N21`, 52.1 µM.
With `CS(=O)(=O)C1=NSC2=NC(=O)/C(=C\c3cccn3-c3ccc(Cl)cc3)C(=N)N21` the figure was 41.7 µM.
Regarding `Cc1c2c(=O)n(-c3nc4ccccc4s3)nc-2cc(O)n1CCc1cccs1`, the concentration for half-maximal inhibition (IC50) is 3.98 µM.
Take `Cc1ccc(-c2ccc(/C=C3\SC(=S)N(CCCC(=O)O)C3=O)o2)cc1`: the half-maximal inhibitory concentration (IC50) was 10.9 µM.
As for `CS(=O)(=O)C1=NSC2=NC(=O)/C(=C\c3cccn3-c3ccc(Cl)c(Cl)c3)C(=N)N21`, the figure is 42.1 µM; as for `O=C(O)CCCN1C(=O)/C(=C\c2ccc(-c3ccc(Cl)cc3)o2)SC1=S`, 2.88 µM; as for `COc1ccccc1Cn1c(O)cc2nn(-c3nc4ccccc4s3)c(=O)c-2c1C`, 1.9 µM.
With `CS(=O)(=O)C1=NSC2=NC(=O)/C(=C\c3cccn3-c3cccc(F)c3)C(=N)N21` the figure was 38.9 µM; with `COc1ccc(-c2ccc(/C=C3\SC(=S)N(CCCC(=O)O)C3=O)o2)cc1`, 56.5 µM.
For `CS(=O)(=O)C1=NSC2=NC(=O)/C(=C\c3cccn3-c3ccc(Br)cc3)C(=N)N21`, the IC50 is 43.5 µM.
As for `Cc1c2c(=O)n(-c3nc4ccccc4s3)nc-2cc(O)n1CCc1ccc(O)cc1`, the figure is 2.83 µM.
